ChEMBL document CHEMBL4673281, “Influenza antiviral activity of F- and OH-containing isopulegol-derived octahydro-2H-chromenes” (Bioorg Med Chem Lett, 2021)
Activity calls are given as the source filed them. The calls are words filed in the database; no cut-off is given here.

Key:
Influenza A virus [1] = test: Antiviral activity against Influenza A virus (A/Puerto Rico/8/34 (H1N1) infected in MDCK cells assessed as decrease in viral titer preincubated for 1 hr followed by viral infection and cultivated for 48 hrs followed by supernatant transferred to chicken erythrocyte for 1 hr followed by measuring ability to cause positive hemagglutination; format: functional, organism-based; details: A/Puerto Rico/8/1934(H1N1)
[2] = Selectivity index, ratio of CC50 for MDCK cells to IC50 for Influenza A virus (A/Puerto Rico/8/34 (H1N1)) infected in MDCK cells; format: toxicity, cell-based; details: dog, read-out: Ratio CC50/IC50
[3] = Cytotoxicity against MDCK cells assessed as cell death incubated for 48 hrs by MTT assay; format: cell-based, Canis lupus familiaris; details: dog
Influenza A virus [4] = test: Antiviral activity against Influenza A virus (A/Puerto Rico/8/34(H1N1)) pdm09 infected in MDCK cells assessed as inhibition of virus infection at early stage by time of addition experiment; format: functional, organism-based; details: A/Puerto Rico/8/1934(H1N1)
[5] = tested on: Influenza A virus (A/Puerto Rico/8/1934(H1N1)); test: Inhibition of Hemagglutinin in Influenza A virus (A/Puerto Rico/8/34(H1N1)); details: dose 0-300 µg/ml

Compound | IC50 (Influenza A virus [1]) [µM] | selectivity ratio [2] | CC50 at 48 h [3] [µM] | Activity (Influenza A virus [4]) | inhibition [5]
COc1ccc([C@H]2CC(C)(F)[C@@H]3CC[C@@H](C)C[C@H]3O2)c(OC)c1OC (some centres undefined) | 6 | 22 | 133 |  | 
C[C@@H]1CC[C@@H]2[C@@H](C1)O[C@@H](c1ccccc1O)CC2(C)O (some centres undefined) | > 1090 | 1 | > 1090 |  | 
C[C@@H]1CC[C@@H]2[C@@H](C1)O[C@@H](c1ccc(F)cc1)CC2(C)O (some centres undefined) | > 36 | 2 | 65 |  | 
COc1ccc([C@H]2CC(C)(F)[C@@H]3CC[C@@H](C)C[C@H]3O2)cc1OC (some centres undefined) | > 9 | 2 | 20 |  | 
COc1cc([C@H]2CC(C)(F)[C@@H]3CC[C@@H](C)C[C@H]3O2)cc(OC)c1OC (some centres undefined) | 199 | 3 | 568 |  | 
COc1cc(OC)c([C@H]2CC(C)(F)[C@@H]3CC[C@@H](C)C[C@H]3O2)cc1OC (some centres undefined) | 6 | 13 | 78 |  | 
C[C@@H]1CC[C@@H]2[C@@H](C1)O[C@@H](c1ccc([N+](=O)[O-])cc1)CC2(C)F (some centres undefined) | > 976 | 1 | > 976 |  | 
CC(N)C12CC3CC(CC(C3)C1)C2 (centres undefined) [RIMANTADINE] | 69 | 5 | 326 |  | 
C[C@@H]1CC[C@@H]2[C@@H](C1)O[C@@H](c1ccc(Br)cc1)CC2(C)O (some centres undefined) | > 89 | 1 | 132 |  | 
C[C@@H]1CC[C@@H]2[C@@H](C1)O[C@@H](c1ccccc1)CC2(C)O (some centres undefined) | 100 | 6 | 580 |  | 
COc1ccc([C@H]2CC(C)(O)[C@@H]3CC[C@@H](C)C[C@H]3O2)cc1O (some centres undefined) | 118 | 6 | 738 |  | 
C[C@@H]1CC[C@@H]2[C@@H](C1)O[C@@H](c1ccccc1)CC2(C)F (some centres undefined) | > 38 | 2 | 65 |  | 
C[C@@H]1CC[C@@H]2[C@@H](C1)O[C@@H](c1ccc([N+](=O)[O-])cc1)CC2(C)O (some centres undefined) | 393 | 3 | > 982 |  | 
COc1cc([C@H]2CC(C)(F)[C@@H]3CC[C@@H](C)C[C@H]3O2)cc(OC)c1O (some centres undefined) | 59 | 3 | 158 |  | 
C[C@@H]1CC[C@@H]2[C@@H](C1)O[C@@H](c1ccc(F)cc1)CC2(C)F (some centres undefined) | > 36 | 2 | 68 |  | 
COc1ccc([C@H]2CC(C)(O)[C@@H]3CC[C@@H](C)C[C@H]3O2)c(OC)c1OC (some centres undefined) | 717 | 1 | > 857 |  | 
C[C@@H]1CC[C@@H]2[C@@H](C1)O[C@@H](c1ccc(Br)cc1)CC2(C)F (some centres undefined) | 391 | 2 | > 882 |  | 
COc1cc([C@H]2CC(C)(O)[C@@H]3CC[C@@H](C)C[C@H]3O2)cc(OC)c1OC (some centres undefined) | > 285 | 1 | 405 |  | 
COc1cc(OC)c([C@H]2CC(C)(F)[C@@H]3CC[C@@H](C)C[C@H]3O2)c(OC)c1 (some centres undefined) | 24 | 35 | 851 | Active | Dose-dependent effect
COc1ccc(OC)c([C@H]2CC(C)(F)[C@@H]3CC[C@@H](C)C[C@H]3O2)c1 (some centres undefined) | > 31 | 1 | 37 |  | 

Compound | IC50 (Influenza A virus [1]) [µM] | selectivity ratio [2] | CC50 at 48 h [3] [µM] | Activity (Influenza A virus [4]) | inhibition [5]
COc1cccc([C@H]2CC(C)(F)[C@@H]3CC[C@@H](C)C[C@H]3O2)c1OC (some centres undefined) | 43 | 4 | 180 |  | 
C[C@@H]1CC[C@@H]2[C@@H](C1)O[C@@H](c1ccc(Cl)cc1)CC2(C)O (some centres undefined) | > 37 | 2 | 62 |  | 
COc1ccc([C@H]2CC(C)(F)[C@@H]3CC[C@@H](C)C[C@H]3O2)cc1O (some centres undefined) | > 32 | 4 | 136 |  | 
COc1cc([C@H]2CC(C)(O)[C@@H]3CC[C@@H](C)C[C@H]3O2)cc(OC)c1O (some centres undefined) | 235 | 2 | 473 |  | 
COc1cc([C@H]2CC(C)(O)[C@@H]3CC[C@@H](C)C[C@H]3O2)ccc1O (some centres undefined) | > 327 | 1 | 411 |  | 
COc1cccc([C@H]2CC(C)(O)[C@@H]3CC[C@@H](C)C[C@H]3O2)c1OC (some centres undefined) | > 937 | 1 | > 937 |  | 
COc1ccc([C@H]2CC(C)(O)[C@@H]3CC[C@@H](C)C[C@H]3O2)cc1 (some centres undefined) | 29 | 24 | 689 |  | 
NC(=O)c1ncn([C@@H]2O[C@H](CO)[C@@H](O)[C@H]2O)n1 [RIBAVIRIN] | 35 | 61 | > 2130 |  | 
C[C@@H]1CC[C@@H]2[C@@H](C1)O[C@@H](c1ccc(Cl)cc1)CC2(C)F (some centres undefined) | 29 | 2 | 57 |  | 
COc1ccc([C@H]2CC(C)(F)[C@@H]3CC[C@@H](C)C[C@H]3O2)cc1 (some centres undefined) | > 103 | 2 | 171 |  | 
COc1ccc(OC)c([C@H]2CC(C)(O)[C@@H]3CC[C@@H](C)C[C@H]3O2)c1 (some centres undefined) | > 312 | 2 | 512 |  | 
COc1ccc([C@H]2CC(C)(F)[C@@H]3CC[C@@H](C)C[C@H]3O2)c(OC)c1 (some centres undefined) | 155 | 2 | 379 |  | 
COc1cc(OC)c([C@H]2CC(C)(O)[C@@H]3CC[C@@H](C)C[C@H]3O2)cc1OC (some centres undefined) | > 857 | 1 | > 857 |  | 
COc1ccc([C@H]2CC(C)(O)[C@@H]3CC[C@@H](C)C[C@H]3O2)cc1OC (some centres undefined) | 344 | 3 | > 937 |  | 
COc1cc([C@H]2CC(C)(F)[C@@H]3CC[C@@H](C)C[C@H]3O2)ccc1O (some centres undefined) | > 324 | 2 | 642 |  | 
COc1cc(OC)c([C@H]2CC(C)(O)[C@@H]3CC[C@@H](C)C[C@H]3O2)c(OC)c1 (some centres undefined) | 19 | 45 | 856 | Active | Dose-dependent effect
C[C@@H]1CC[C@@H]2[C@@H](C1)O[C@@H](c1ccc(O)cc1)CC2(C)F (some centres undefined) | > 36 | 3 | 95 |  | 
COc1ccc([C@H]2CC(C)(O)[C@@H]3CC[C@@H](C)C[C@H]3O2)c(OC)c1 (some centres undefined) | 78 | 12 | > 937 |  | 
C[C@@H]1CC[C@@H]2[C@@H](C1)O[C@@H](c1ccccc1O)CC2(C)F (some centres undefined) | > 36 | 1 | 44 |  | 
C[C@@H]1CC[C@@H]2[C@@H](C1)O[C@@H](c1ccc(O)cc1)CC2(C)O (some centres undefined) | 87 | 1 | 127 |  | 
